Test results taken from PubChem BioAssay (NCI).
“And” between values parts separate entries of the source, which are not always exact repeats. Identical values can stand only once.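 Results reflect a 48-hour exposure of cells in 96-well plates to compound at five concentrations. The concentration for 50% growth inhibition is given as GI50. TGI marks complete inhibition of growth.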

What follows are compounds tested on NCI-H460 lung (assay: NCI anticancer screen, dose series, 48 h).

Q: What does the source list for `CN1CCN(C(=O)OCc2nc3c(N4CCOCC4)nc(Cl)nc3n2C)CC1`?
A: GI50: 1.64 µM; TGI: 3.51 µM

Q: Which results are given for `COC(=O)[C@]12CC[C@@H](C)[C@H](C)[C@@H]1C1=CC[C@@H]3[C@@]4(C)C/C(=N\O)[C@H](O)[C@@]5(C)COC(=C45)C[C@@]3(C)[C@]1(C)CC2`?
A: GI50: 3.29 µM; TGI: 10.7 µM

Q: `Oc1c(CN2CCC(N3CCCCC3)CC2)cc(Cc2cc(CN3CCC(N4CCCCC4)CC3)c(O)c3ncccc23)c2cccnc12` was tested. Which GI50 did it give?
A: The GI50 was 0.287 µM.

Q: What about the TGI of the same compound?
A: Its TGI is 11.5 µM.

Q: For `Cn1c2ccccc2c2c(-c3ccccc3)[n+]3ccncc3nc21`, which GI50 is on record?
A: Its GI50 is > 100 µM.

Q: What about the TGI of the same compound?
A: Its TGI is > 100 µM.

Q: With `C[C@@H]1OC(O)[C@@H](F)[C@H](O)[C@@H]1O` (stereo partly specified) as the compound, how does the GI50 read?
A: Its GI50 is > 100 µM.

Q: What about the TGI of the same compound?
A: The TGI was > 100 µM.

Q: With `COc1ccc(-c2cnnc3c(-c4cccc(C(F)(F)F)c4)cnn23)cc1` as the compound, how does the GI50 read?
A: The GI50 was 4.67 µM.

Q: What about the TGI of the same compound?
A: Its TGI is > 100 µM.

Q: Which GI50 does the source give for `NC(=O)c1ccc(I)c(N)c1` here?
A: Its GI50 is > 100 µM.

Q: And the TGI?
A: Its TGI is > 100 µM.

Q: Which results are given for `C=CCCCCCCCCC(=O)[O][Sn]([CH2]CCC)([CH2]CCC)[CH2]CCC`?
A: GI50: 0.152 µM; TGI: 0.312 µM

Q: For `CC/C(=C(/c1ccc(O)cc1)c1ccc(OCCNC)cc1)c1ccccc1`, which GI50 is on record?
A: Its GI50 is 1.84 µM.

Q: And the TGI?
A: The TGI was 3.37 µM.

Q: Which GI50 does the source give for `O=C(/C(Br)=C/c1ccccc1)c1ccccc1` here?
A: Its GI50 is 17.8 µM.

Q: And the TGI?
A: Its TGI is 38 µM.

Q: With `C=C1C(=O)O[C@H]2[C@H]1CC/C(Cn1cc(-c3ccc(OC)cc3)nn1)=C\CC[C@@]1(C)O[C@@H]21` as the compound, how does the GI50 read?
A: The GI50 was 8.45 µM.

Q: And the TGI?
A: Its TGI is 25.2 µM.

Q: For `O=C1CCCCN1CCCCC#Cc1ccccc1C#Cc1ccc([N+](=O)[O-])cc1`, which GI50 is on record?
A: The GI50 was 2 µM.

Q: What about the TGI of the same compound?
A: Its TGI is 4.35 µM.

Q: Which GI50 does the source give for `CCOc1cc2c(Cl)ncnc2c(OCC)c1OCC` here?
A: Its GI50 is 5.21 µM.

Q: And the TGI?
A: The TGI was 17.7 µM.

Q: Which GI50 does the source give for `Oc1ccc2ccccc2c1N=Nc1nccs1` here?
A: The GI50 was 0.839 µM.

Q: What about the TGI of the same compound?
A: The TGI was > 100 µM.

Q: `CC(=O)OCCN1c2ccccc2Sc2cnccc21` was tested. Which TGI did it give?
A: Its TGI is > 10 µM.

Q: For `CC(C)(CC(=O)Nc1ccccc1)C(=O)O`, which TGI is on record?
A: Its TGI is > 100 µM.

Q: With `COc1ccc(/C(COc2c(-c3ccccc3)oc3ccccc3c2=O)=N\O)cc1` as the compound, how does the GI50 read?
A: The GI50 was 12.3 µM.

Q: What about the TGI of the same compound?
A: Its TGI is 39.6 µM.

Q: For `Cn1c(=O)c2[nH]c(SCc3ccccn3)nc2n(C)c1=S`, which TGI is on record?
A: The TGI was > 100 µM.

Q: What does the source list for `COc1cc2c(c(O)c1Br)C(=O)c1c(O)cc(C[C@H](C)O)cc1[C@H]2[C@H]1c2cc(C[C@H](C)O)cc(O)c2C(=O)c2c1cc(OC)c(Br)c2O`?
A: GI50: 2.76 µM and 5.27 µM; TGI: 21.4 µM and 19.4 µM

Q: `COc1ccc(-c2cc(=O)c3ccc(O)cc3o2)cc1OC` was tested. Which TGI did it give?
A: The TGI was > 100 µM.

Q: How did the GI50 turn out when `CC[C@]1(O)C[C@@H]2CN(CCc3c([nH]c4ccccc34)[C@@](C(=O)OC)(c3cc4c(cc3OC)N(C)[C@H]3[C@@](O)(C(=O)OC)[C@H](OC(C)=O)[C@]5(CC)C=CCN6CC[C@]43[C@@H]65)C2)C1` was run?
A: The GI50 was < 0.01 µM.

Q: What about the TGI of the same compound?
A: Its TGI is 15.1 µM.

Q: Which GI50 does the source give for `N#CSc1c[nH]c2cccc(/C=C/C(=O)/C=C(/C=C/c3cccc4[nH]cc(SC#N)c34)OB(F)F)c12` here?
A: The GI50 was 1.12 µM.

Q: What about the TGI of the same compound?
A: The TGI was 6.13 µM.

Q: With `COc1cc([N+](=O)[O-])cc2c3c(n(C)c12)[C@@]1(C)CCC2c4ccc(OCc5ccccc5)cc4CCC2C1C3` (stereo partly specified) as the compound, how does the GI50 read?
A: Its GI50 is 90.1 µM.

Q: What about the TGI of the same compound?
A: The TGI was > 100 µM.

Q: Which GI50 does the source give for `C=CC(=O)N1CC2(CCN(c3nc(OC4CCN(CCCOC)CC4)nc4c(OCC(F)(F)F)c(-c5c(C)ccc6[nH]ncc56)c(C5CC5)cc34)CC2)C1` here?
A: Its GI50 is 2.09 µM.

Q: And the TGI?
A: Its TGI is 4.4 µM.

Q: Which results are given for `Nc1nc(Cl)c2ncn(Cc3ccc(C45CC6CC(CC(C6)C4)C5)c(O)c3)c2n1`?
A: GI50: 4.03 µM; TGI: 15.6 µM

Q: For `CCC(C)c1c(Cl)nc(Cl)nc1Cl` (stereo unspecified), which TGI is on record?
A: Its TGI is 34.2 µM.

Q: With `N#Cc1ccc(O)c(C2=NCC(c3cccc(Oc4ccccc4)c3)O2)c1` (stereo unspecified) as the compound, how does the GI50 read?
A: The GI50 was 0.434 µM.

Q: And the TGI?
A: Its TGI is 10.2 µM.

Q: Which results are given for `CS(=O)(=O)c1ccc([C@H]2O[C@@H](CO)C[C@]2(O)c2ccc(S(C)(=O)=O)cc2)cc1`?
A: GI50: > 100 µM; TGI: > 100 µM

Q: With `C[C@]12CC[C@H]3[C@@H](CC=C4C[C@@H](O)CC[C@@]43C)[C@@H]1CC[C@@H]2N(CCO)CCO` as the compound, how does the TGI read?
A: Its TGI is > 100 µM.

Q: `CC(C)(C)OC(=O)N1CCc2c(sc3ncnc(N/N=C/c4cccc5ccccc45)c23)C1` was tested. Which GI50 did it give?
A: Its GI50 is 3.29 µM.

Q: And the TGI?
A: The TGI was 12.7 µM.

Q: Which TGI does the source give for `Cc1ccc2c(c1)[n+]([O-])c(N)n[n+]2[O-]` here?
A: The TGI was > 100 µM.

Q: `COC1/C=C\C=C(/C)C(=O)NC2=CC(=O)C(=O)C(=C2O)CC(C)CC(OC)C(O)C(C)/C=C(\C)C1OC(N)=O` (stereo unspecified) was tested. Which TGI did it give?
A: The TGI was > 100 µM.
